Legend:
Progesterone receptor = target: T1, Progesterone receptor (Homo sapiens, UniProt P06401); experiment: Inhibition of human progesterone receptor
T1 sequence (P06401 whole entry): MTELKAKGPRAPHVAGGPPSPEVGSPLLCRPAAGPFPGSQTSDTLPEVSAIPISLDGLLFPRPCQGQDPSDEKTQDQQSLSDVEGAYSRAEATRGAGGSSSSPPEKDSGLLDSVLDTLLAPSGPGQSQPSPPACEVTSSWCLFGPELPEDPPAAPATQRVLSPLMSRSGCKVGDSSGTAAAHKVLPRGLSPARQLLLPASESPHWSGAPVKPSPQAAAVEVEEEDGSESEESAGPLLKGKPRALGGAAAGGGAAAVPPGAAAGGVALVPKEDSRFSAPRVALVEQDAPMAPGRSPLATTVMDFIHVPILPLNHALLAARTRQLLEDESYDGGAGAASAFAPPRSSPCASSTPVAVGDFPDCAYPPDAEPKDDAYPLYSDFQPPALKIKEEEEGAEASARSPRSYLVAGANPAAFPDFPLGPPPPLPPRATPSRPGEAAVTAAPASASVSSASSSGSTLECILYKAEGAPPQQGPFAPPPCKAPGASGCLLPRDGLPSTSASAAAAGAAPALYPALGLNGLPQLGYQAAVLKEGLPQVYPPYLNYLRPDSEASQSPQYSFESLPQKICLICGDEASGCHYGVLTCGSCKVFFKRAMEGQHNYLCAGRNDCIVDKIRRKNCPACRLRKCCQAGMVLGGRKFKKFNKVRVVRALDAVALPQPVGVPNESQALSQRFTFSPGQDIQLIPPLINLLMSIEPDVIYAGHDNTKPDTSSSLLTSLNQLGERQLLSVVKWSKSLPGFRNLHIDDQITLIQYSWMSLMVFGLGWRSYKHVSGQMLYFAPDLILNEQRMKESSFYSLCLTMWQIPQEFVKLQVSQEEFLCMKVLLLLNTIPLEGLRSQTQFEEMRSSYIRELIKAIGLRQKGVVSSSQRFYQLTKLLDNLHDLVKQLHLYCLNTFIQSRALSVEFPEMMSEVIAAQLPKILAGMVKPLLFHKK

[1] = Inhibitory activity against rat lymphocytes; parameters: concentration or dose not given beside the values
[2] = Inhibitory activity of the Compound against rat lymphocytes
[3] = target: Glucocorticoid receptor (Rattus norvegicus) (UniProt P06536); experiment: Inhibition of glucocorticoid receptor mediated tyrosine aminotransferase activity; parameters: concentration or dose not given beside the values; details: concentration not given here
Chain of Glucocorticoid receptor (Rattus norvegicus) (P06536 whole entry, looked up): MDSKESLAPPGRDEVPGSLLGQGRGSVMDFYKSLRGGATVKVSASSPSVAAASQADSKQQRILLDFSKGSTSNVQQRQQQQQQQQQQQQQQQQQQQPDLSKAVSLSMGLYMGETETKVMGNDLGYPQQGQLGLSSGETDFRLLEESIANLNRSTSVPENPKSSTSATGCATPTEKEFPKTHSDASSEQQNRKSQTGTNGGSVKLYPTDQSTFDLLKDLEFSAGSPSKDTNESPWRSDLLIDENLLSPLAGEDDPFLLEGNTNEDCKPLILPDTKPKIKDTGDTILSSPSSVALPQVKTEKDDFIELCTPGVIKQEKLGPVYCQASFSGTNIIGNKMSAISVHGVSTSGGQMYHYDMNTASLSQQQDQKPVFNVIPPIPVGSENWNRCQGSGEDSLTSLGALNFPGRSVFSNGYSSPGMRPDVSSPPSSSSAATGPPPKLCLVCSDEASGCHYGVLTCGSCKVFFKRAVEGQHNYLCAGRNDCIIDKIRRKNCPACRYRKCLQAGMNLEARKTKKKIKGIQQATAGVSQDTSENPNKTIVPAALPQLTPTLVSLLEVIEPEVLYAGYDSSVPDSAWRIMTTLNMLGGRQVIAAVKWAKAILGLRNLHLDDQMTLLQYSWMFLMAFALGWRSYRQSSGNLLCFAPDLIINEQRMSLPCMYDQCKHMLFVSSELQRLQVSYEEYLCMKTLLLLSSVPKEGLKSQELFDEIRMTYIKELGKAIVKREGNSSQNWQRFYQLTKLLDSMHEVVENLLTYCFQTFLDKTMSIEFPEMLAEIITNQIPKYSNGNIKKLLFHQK

| Compound | Ki (Progesterone receptor) [nM] | inhibition [3] [%] | Inhibition [1] [%] | Inhibition [2] [%] |
| --- | --- | --- | --- | --- |
| C#C[C@]1(O)CC[C@H]2[C@@H]3CCC4=CC(=O)CCC4=C3[C@@H](c3ccc(N(C)CCC[C@H]4[C@H](O)CC[C@@]5(C)[C@@H]4C[C@@H](O)[C@@H]4[C@@H]5C[C@H](O)[C@]5(C)[C@@H]([C@H](C)CCC(=O)O)CC[C@@H]45)cc3)C[C@@]21C | 2.1 | – | – | – |
| C#C[C@]1(O)CC[C@H]2[C@@H]3CCC4=CC(=O)CCC4=C3[C@@H](c3ccc(N(C)CCOC4CC[C@@]5(C)[C@@H](C4)C[C@@H](O)[C@@H]4[C@@H]5C[C@H](O)[C@]5(C)[C@@H]([C@H](C)CCC(=O)O)CC[C@@H]45)cc3)C[C@@]21C (stereo in doubt; form 1) | 3.3 | – | -14 | – |
| C#C[C@]1(O)CC[C@H]2[C@@H]3CCC4=CC(=O)CCC4=C3[C@@H](c3ccc(N(C)C(=O)CNC(=O)O[C@@H]4C[C@@H]5CC(O)CC[C@]5(C)[C@H]5C[C@H](O)[C@]6(C)[C@@H]([C@H](C)CCC(=O)O)CC[C@H]6[C@H]45)cc3)C[C@@]21C (stereo not given in full) | 4.4 | – | – | – |
| C#C[C@]1(O)CC[C@H]2[C@@H]3CCC4=CC(=O)CCC4=C3[C@@H](c3ccc(N(C)CCNC(=O)N(C)C4CC[C@@]5(C)[C@@H](C4)C[C@@H](O)[C@@H]4[C@@H]5C[C@H](O)[C@]5(C)[C@@H]([C@H](C)CCC(=O)O)CC[C@@H]45)cc3)C[C@@]21C (stereo not given in full) | 3.5 | – | – | – |
| C#C[C@]1(O)CC[C@H]2[C@@H]3CCC4=CC(=O)CCC4=C3[C@@H](c3ccc(N(C)C(C)=O)cc3)C[C@@]21C | 6.4 | – | – | – |
| C#C[C@]1(O)CC[C@H]2[C@@H]3CCC4=CC(=O)CCC4=C3[C@@H](c3ccc(N(C)C(=O)CNC(=O)OC4CC[C@@]5(C)[C@@H](C4)C[C@@H](O)[C@@H]4[C@@H]5C[C@H](O)[C@]5(C)[C@@H]([C@H](C)CCC(=O)O)CC[C@@H]45)cc3)C[C@@]21C (stereo not given in full) | 2.4 | – | – | – |
| C#C[C@]1(O)CC[C@H]2[C@@H]3CCC4=CC(=O)CCC4=C3[C@@H](c3ccc(N(C)CCCS(=O)(=O)N(C)C4CC[C@@]5(C)[C@@H](C4)C[C@@H](O)[C@@H]4[C@@H]5C[C@H](O)[C@]5(C)[C@@H]([C@H](C)CCC(=O)O)CC[C@@H]45)cc3)C[C@@]21C (stereo not given in full) | 1.9 | – | 9 | – |

Compounds with a lower Ki (Progesterone receptor), results first:

| Ki (Progesterone receptor) [nM] | inhibition [3] [%] | Compound | Inhibition [1] [%] | Inhibition [2] [%] |
| --- | --- | --- | --- | --- |
| 0.81 | – | C#C[C@]1(O)CC[C@H]2[C@@H]3CCC4=CC(=O)CCC4=C3[C@@H](c3ccc(N(C)CCOC4CC[C@@]5(C)[C@@H](C4)C[C@@H](O)[C@@H]4[C@@H]5C[C@H](O)[C@]5(C)[C@@H]([C@H](C)CCC(=O)O)CC[C@@H]45)cc3)C[C@@]21C (stereo in doubt; form 2) | 9 | – |
| 0.53 | – | C#C[C@]1(O)CC[C@H]2[C@@H]3CCC4=CC(=O)CCC4=C3[C@@H](c3ccc(N(C)CCOC4CC[C@@]5(C)[C@@H](C4)C[C@@H](O)[C@@H]4[C@@H]5C[C@H](O)[C@]5(C)[C@@H]([C@H](C)CCC(=O)NCCS(=O)(=O)O)CC[C@@H]45)cc3)C[C@@]21C (stereo not given in full) | – | – |
| 1 | – | C#C[C@]1(O)CC[C@H]2[C@@H]3CCC4=CC(=O)CCC4=C3[C@@H](c3ccc(N(C)CCOC4CC[C@@]5(C)[C@@H](C4)C[C@@H](O)[C@@H]4[C@@H]5C[C@H](O)[C@]5(C)[C@@H]([C@H](C)CCC(=O)NCC(=O)O)CC[C@@H]45)cc3)C[C@@]21C (stereo not given in full) | – | – |
| 0.39 | – | C#C[C@]1(O)CC[C@H]2[C@@H]3CCC4=CC(=O)CCC4=C3[C@@H](c3ccc(N(C)CCNC(=O)OC4CC[C@@]5(C)[C@@H](C4)C[C@@H](O)[C@@H]4[C@@H]5C[C@H](O)[C@]5(C)[C@@H]([C@H](C)CCC(=O)O)CC[C@@H]45)cc3)C[C@@]21C (stereo not given in full) | – | 14 |
| 1.1 | 64 | C#C[C@]1(O)CC[C@H]2[C@@H]3CCC4=CC(=O)CCC4=C3[C@@H](c3ccc(N(C)CCCOC4CC[C@@]5(C)[C@@H](C4)C[C@@H](O)[C@@H]4[C@@H]5C[C@H](O)[C@]5(C)[C@@H]([C@H](C)CCC(=O)O)CC[C@@H]45)cc3)C[C@@]21C (stereo not given in full) | -5 | – |
| 0.96 | 11 | C#C[C@]1(O)CC[C@H]2[C@@H]3CCC4=CC(=O)CCC4=C3[C@@H](c3ccc(N(C)CCCC(=O)N(C)C4CC[C@@]5(C)[C@@H](C4)C[C@@H](O)[C@@H]4[C@@H]5C[C@H](O)[C@]5(C)[C@@H]([C@H](C)CCC(=O)O)CC[C@@H]45)cc3)C[C@@]21C (stereo not given in full) | 4 | – |
| 0.48 | 60 | C#C[C@]1(O)CC[C@H]2[C@@H]3CCC4=CC(=O)CCC4=C3[C@@H](c3ccc(N(C)CCOCCO[C@H]4CC[C@@]5(C)[C@@H](C4)C[C@@H](O)[C@@H]4[C@@H]5C[C@H](O)[C@]5(C)[C@@H]([C@H](C)CCC(=O)O)CC[C@@H]45)cc3)C[C@@]21C | 43 | – |
| 1.2 | – | C#C[C@]1(O)CC[C@H]2[C@@H]3CCC4=CC(=O)CCC4=C3[C@@H](c3ccc(N(C)C(=O)CC[C@H](NC(=O)CC[C@@H](C)[C@H]4CC[C@H]5[C@@H]6[C@H](O)C[C@@H]7C[C@H](O)CC[C@]7(C)[C@H]6C[C@H](O)[C@]45C)C(=O)O)cc3)C[C@@]21C | – | – |

— ChEMBL document CHEMBL1138676, “Liver-selective glucocorticoid antagonists: a novel treatment for type 2 diabetes” (J Med Chem, 2004)
